Assay: Single-dose, randomized, two-way crossover bioequivalence/pharmacokinetic studies A-D under fed conditions (plasma LC-MS/MS, NCA)
Conditions: reference formulation, Study C, metformin 850 mg, empagliflozin […] mg, n 35
Protocol: To ensure standardization, all subjects underwent at least 10 h of overnight pre-dose fasting on the study day. Participants then received a standardized high-fat, high-calorie breakfast (approximately 800 kcal). Dosing was administered 30 min after the start of this meal, followed by the intake of a 10% glucose solution (250 mL). The glucose solution was administered as a prophylactic measure to reduce the risk of hypoglycemia. It was not intended to simulate fed-state caloric intake beyond the standardized meal, in accordance with institutional clinical practice.
Each study period included a one-day treatment followed by a 14-day washout period. […] All adverse events, including duration, severity, causality, and outcomes, were strictly monitored and recorded by the principal investigator and medical staff throughout the study.
Promptly after collection, the samples were centrifuged at 3500 rpm for 10 min at 4 °C to separate the plasma. The harvested plasma was then transferred into appropriately labeled cryovials and immediately cryopreserved at −70 ± 15 °C until bioanalytical quantification. […]
The primary pharmacokinetic parameters evaluated to establish bioequivalence were the maximum observed plasma concentration (Cmax) and the area under the concentration–time curve from time zero to the last measurable concentration (AUC0-t). […]

CN(C)C(=N)N=C(N)N [Metformin]
AUC0-t (mean): 13,288.1 ng⋅h/mL

Reference: paper PMC13516501 (Pharmaceuticals, 2026)
